In DBAASP:
Values after ≈ are worked out from the molar mass of the structure shown.

Columns and labels:
Experiment in all cases: ≥ marks a high value that may be exact or a test limit, other limits are often not marked, values filed in µg/mL are converted to µM
[1] = test system: Pseudomonas putida ATCC 17426
[2] = test system: Streptococcus mutans ATCC 25175
[3] = test system: Salmonella enterica subsp. enterica serovar Enteritidis ATCC 13076
[4] = test system: Escherichia coli ATCC 27325
[5] = test system: Saccharomyces cerevisiae ATCC 44774
[6] = test system: Candida albicans ATCC 10231
[7] = test system: Bacillus subtilis ATCC 62037
[8] = test system: Staphylococcus aureus ATCC 15752
[9] = test system: Cryptococcus neoformans ATCC 34881
[10] = test system: Escherichia coli ATCC 25922
[11] = test system: Micrococcus luteus ATCC 10240
[12] = test system: Bacillus subtilis ATCC 6633
[13] = test system: Pseudomonas aeruginosa ATCC 27853
[14] = test system: Staphylococcus aureus TK784
[15] = test system: Staphylococcus epidermidis ATCC 12228
[16] = test system: Klebsiella pneumoniae ATCC 10031
[17] = test system: Salmonella enterica subsp. enterica serovar Typhimurium ATCC 14028
[18] = test system: Staphylococcus aureus ATCC 6538P
[19] = test system: Shigella dysenteriae ATCC 9752
[20] = test system: Klebsiella pneumoniae ESBL 61962
[21] = test system: Pseudomonas aeruginosa 198
[22] = test system: Enterococcus faecalis ATCC 29212
[23] = test system: Enterococcus faecalis f43559
[24] = test system: Enterobacter cloacae 218R
[25] = test system: Pseudomonas aeruginosa 213
[26] = test system: Pseudomonas aeruginosa LES400
[27] = test system: Pseudomonas aeruginosa PAO1 H103
[28] = test system: Pseudomonas aeruginosa H1030
[29] = test system: Escherichia coli ESBL 64771
[30] = test system: Pseudomonas aeruginosa H1027
[31] = test system: Klebsiella pneumoniae ESBL 63575
[32] = test system: Staphylococcus aureus ATCC 25923
[33] = test system: Staphylococcus aureus C623
[34] = test system: Enterococcus faecalis W61950
[35] = test system: Enterococcus faecium t62764
[36] = test system: Escherichia coli ESBL 63103
Pseudomonas aeruginosa 9 = test system: Pseudomonas aeruginosa 9
[37] = test system: Stenotrophomonas maltophilia ATCC 13637
[38] = test system: Enterococcus faecium mic80
[39] = test system: Micrococcus luteus DSM 20030

| SMILES | MIC [1] [µM] | MIC [2] [µM] | MIC [3] [µM] | MIC [4] [µM] | MIC [5] [µM] | MIC [6] [µM] | MIC [7] [µM] | MIC [8] [µM] | MIC [9] [µM] | MIC [10] [µM] | MIC [11] [µM] | MIC [12] [µM] | MIC [13] [µM] | MIC [14] [µM] | MIC [15] [µM] | MIC [16] [µM] | MIC [17] [µM] | MIC [18] [µM] | MIC [19] [µM] | also measured |
| --- | --- | --- | --- | --- | --- | --- | --- | --- | --- | --- | --- | --- | --- | --- | --- | --- | --- | --- | --- | --- |
| CC[C@H](C)[C@H](NC(=O)[C@@H]1CCCN1C(=O)[C@H](Cc1c[nH]c2ccccc12)NC(=O)[C@H](CCC(N)=O)NC(=O)[C@H](CC(C)C)NC(=O)CNC(=O)[C@H](C)NC(=O)[C@@H](N)CCCN=C(N)N)C(=O)NCC(=O)N[C@@H](CCCN=C(N)N)C(=O)N[C@@H](CC(C)C)C(=O)N[C@@H](CC(C)C)C(=O)N[C@@H](CCCN=C(N)N)C(=O)N[C@@H](CCCN=C(N)N)C(=O)N[C@@H](CC(C)C)C(=O)N[C@@H](CC(C)C)C(=O)N[C@@H](CCCN=C(N)N)C(=O)N[C@@H](CCCN=C(N)N)C(=O)N[C@@H](CC(C)C)C(=O)N[C@@H](CC(C)C)C(=O)N[C@@H](CCCN=C(N)N)C(=O)O [RAGLQWPIGRLLRRLLRRLLR] | 0.765 (≈ 2 µg/mL) | 0.765 (≈ 2 µg/mL) | 0.765 (≈ 2 µg/mL) | 0.383 (≈ 1 µg/mL) | 0.765 (≈ 2 µg/mL) | 0.765 (≈ 2 µg/mL) | 0.765 (≈ 2 µg/mL) | 0.383 (≈ 1 µg/mL) | 0.383 (≈ 1 µg/mL) | – | – | – | – | – | – | – | – | – | – | – |
| N=C(N)NCCC[C@H](NC(=O)[C@H](CCCNC(=N)N)NC(=O)[C@@H](N)Cc1ccccc1)C(=O)N[C@@H](Cc1c[nH]c2ccccc12)C(=O)N[C@@H](Cc1c[nH]c2ccccc12)C(=O)N[C@@H](CCCCN)C(=O)N[C@@H](Cc1c[nH]c2ccccc12)C(=O)N[C@@H](Cc1ccccc1)C(=O)N[C@@H](CCCCN)C(=O)O [FRRWWKWFK] | – | – | – | – | – | – | – | – | – | – | – | – | – | – | – | – | – | – | – | MIC [20]: ≥ 46.5 µM; MIC [21]: 1.46 µM (≈ 2.1 µg/mL); MIC [22]: 11.8 µM (≈ 17 µg/mL); MIC [23]: ≥ 46.5 µM; MIC [24]: 11.8 µM (≈ 17 µg/mL); MIC [25]: 2.85 µM (≈ 4.1 µg/mL); MIC [26]: 2.85 µM (≈ 4.1 µg/mL); MIC [27]: 0.695 µM (≈ 1 µg/mL); MIC [28]: 11.8 µM (≈ 17 µg/mL); MIC [29]: 2.92 µM (≈ 4.2 µg/mL); MIC [30]: 0.695 µM (≈ 1 µg/mL); MIC [31]: 11.8 µM (≈ 17 µg/mL); MIC [32]: 0.695 µM (≈ 1 µg/mL); MIC [33]: 1.46 µM (≈ 2.1 µg/mL); MIC [34]: ≥ 93.8 µM; MIC [35]: 2.92 µM (≈ 4.2 µg/mL); MIC [36]: 5.77 µM (≈ 8.3 µg/mL); MIC (Pseudomonas aeruginosa 9): 5.77 µM (≈ 8.3 µg/mL); MIC [37]: 0.417 µM (≈ 0.6 µg/mL); MIC [38]: 2.92 µM (≈ 4.2 µg/mL) |
| CC[C@H](C)[C@H](N)C(=O)N[C@@H](CO)C(=O)N[C@@H](CCC(N)=O)C(=O)N[C@@H](CO)C(=O)N[C@@H](CC(=O)O)C(=O)N[C@@H](C)C(=O)N[C@H](C(=O)N[C@@H](CC(C)C)C(=O)N[C@@H](CO)C(=O)N[C@@H](C)C(=O)N[C@H](C(=O)N[C@@H](Cc1c[nH]c2ccccc12)C(=O)N[C@@H](CO)C(=O)NCC(=O)N[C@H](C(=O)N[C@@H](CCCCN)C(=O)N[C@@H](CO)C(=O)N[C@@H](CC(C)C)C(=O)N[C@@H](Cc1ccccc1)C(N)=O)[C@@H](C)CC)[C@@H](C)CC)[C@@H](C)CC [ISQSDAILSAIWSGIKSLF] | – | – | – | – | – | – | – | – | – | – | – | – | – | – | – | – | – | – | – | MIC [39]: 4 µM (≈ 8.14 µg/mL) |
| CC[C@H](C)[C@H](NC(=O)CNC(=O)[C@H](CCCCN)NC(=O)[C@H](CCCCN)NC(=O)[C@H](CCC(N)=O)NC(=O)[C@H](CC(C)C)NC(=O)[C@H](CCSC)NC(=O)[C@@H](NC(=O)[C@H](CCC(=O)O)NC(=O)CNC(=O)[C@@H](NC(=O)[C@H](Cc1ccccc1)NC(=O)[C@H](C)NC(=O)[C@H](CCCCN)NC(=O)CNC(=O)[C@H](Cc1ccccc1)NC(=O)[C@H](CCCCN)NC(=O)[C@H](CCCCN)NC(=O)[C@H](C)NC(=O)[C@H](CO)NC(=O)[C@H](Cc1cnc[nH]1)NC(=O)[C@H](CCSC)NC(=O)[C@H](C)NC(=O)[C@H](CCCCN)NC(=O)[C@@H]1CCCN1C(=O)[C@H](C)N)C(C)C)[C@@H](C)CC)C(=O)O [APKAMHSAKKFGKAFVGEIMLQKKGI] | 22.7 (≈ 64 µg/mL) | ≥ 45.4 | 11.4 (≈ 32 µg/mL) | 22.7 (≈ 64 µg/mL) | 11.4 (≈ 32 µg/mL) | 11.4 (≈ 32 µg/mL) | 22.7 (≈ 64 µg/mL) | 22.7 (≈ 64 µg/mL) | 5.68 (≈ 16 µg/mL) | – | – | – | – | – | – | – | – | – | – | – |

Further lines, with some results ahead:

| MIC [1] [µM] | MIC [2] [µM] | MIC [3] [µM] | MIC [4] [µM] | MIC [5] [µM] | MIC [6] [µM] | MIC [7] [µM] | MIC [8] [µM] | MIC [9] [µM] | MIC [10] [µM] | MIC [11] [µM] | MIC [12] [µM] | MIC [13] [µM] | MIC [14] [µM] | MIC [15] [µM] | MIC [16] [µM] | MIC [17] [µM] | MIC [18] [µM] | MIC [19] [µM] | SMILES | also measured |
| --- | --- | --- | --- | --- | --- | --- | --- | --- | --- | --- | --- | --- | --- | --- | --- | --- | --- | --- | --- | --- |
| – | – | – | – | – | – | – | – | – | 8.86 (≈ 12.5 µg/mL) | 4.47 (≈ 6.3 µg/mL) | 4.47 (≈ 6.3 µg/mL) | 17.7 (≈ 25 µg/mL) | 2.84 (≈ 4 µg/mL) | 4.47 (≈ 6.3 µg/mL) | 4.47 (≈ 6.3 µg/mL) | 17.7 (≈ 25 µg/mL) | 4.47 (≈ 6.3 µg/mL) | 4.47 (≈ 6.3 µg/mL) | CC(C)C[C@H](NC(=O)[C@H](CC(C)C)NC(=O)[C@H](CCCCN)NC(=O)[C@H](CCCCN)NC(=O)[C@H](CC(C)C)NC(=O)[C@H](Cc1c[nH]c2ccccc12)NC(=O)[C@H](CCCCN)NC(=O)[C@H](CC(C)C)NC(=O)[C@H](CC(C)C)NC(=O)[C@H](CCCCN)NC(=O)[C@@H](N)CCCCN)C(N)=O [KKLLKWLKKLL] | – |
| – | – | – | – | – | – | – | – | – | 1.42 (≈ 2 µg/mL) | 2.84 (≈ 4 µg/mL) | 1.42 (≈ 2 µg/mL) | 2.84 (≈ 4 µg/mL) | 5.67 (≈ 7.99 µg/mL) | 1.42 (≈ 2 µg/mL) | 1.42 (≈ 2 µg/mL) | 1.42 (≈ 2 µg/mL) | 1.42 (≈ 2 µg/mL) | 1.42 (≈ 2 µg/mL) | CC(C)C[C@H](NC(=O)[C@H](Cc1c[nH]c2ccccc12)NC(=O)[C@H](CCCCN)NC(=O)[C@H](CC(C)C)NC(=O)[C@H](CC(C)C)NC(=O)[C@H](CCCCN)NC(=O)[C@H](CCCCN)NC(=O)[C@H](CC(C)C)NC(=O)[C@H](CC(C)C)NC(=O)[C@@H](N)CCCCN)C(=O)N[C@@H](CCCCN)C(N)=O [KLLKKLLKWLK] | – |
